# Patent US6235769A, “Methods of preventing and treating neurological disorders with compounds that modulate the function of the C-RET receptor protein tyrosine kinase” (Sugen, Inc., priority 1998, dated 2001)
# What was measured:
# Type in all cases: cell-based
# FLK-1 receptor = assay: FLK-1 ELISA, catalytic activity of the FLK-1 receptor in FLK-1/NIH3T3 cells; settings: concentration that yielded a two-hundred percent increase in catalytic activity in the FLK-1 ELISA
# Protocol: An enzyme linked immunosorbant assay (ELISA) can be conducted to measure the catalytic activity of the FLK-1 receptor and more specifically, the inhibition or activation of indolinone compounds of the catalytic activity of the FLK-1 receptor. The following assay was conducted to measure catalytic activity of the FLK-1 receptor in FLK-l/NIH3T3 cells.
# One skilled in the art can adapt such a procedure to other receptor tyrosine protein kinases to identify compounds that modulate the function of the receptor.
# This type of assay can be developed for nearly any RPTK using well known techniques utilized by persons of ordinary skill in the art. The FLK-1/NIH3T3 cell lines are also created by techniques well known to those skilled in the art. The NIH3T3 cells were stably transfected with gene constructs containing the FLK-1 gene. The nucleic acid vectors used for this type of procedure are commonly and commercially available to those skilled in the art. The methods of cloning the genes of interest into these nucleic acid vectors and the methods of transfecting these nucleic acid constructs into cells are also well known to those skilled in the art. Sambrook, Fritsch, Maniatis, Molecular Cloning, A Laboratory Manual 2nd Ed., Cold Spring Harbor Laboratory Press, 1989.
# 1. Coat Corning 96-well ELISA plates with 1.0 μg per well Cappel Anti-rabbit IgG antibody in 0.1 M Na2 CO3 pH 9.6. Bring final volume to 150 μL per well. Coat plates overnight at 4° C. Plates can be kept up to two weeks when stored at 4° C.
# 2. Grow cells in Growth media (DMEM, supplemental with 2.0 mM L-Glutamine, 10% FBS) in suitable culture dishes until confluent at 37° C., 5% CO2.
# 3. Harvest cells by trypsinization and seed in Corning 25850 polystyrene 96-well roundbottom cell plates, 25.000 cells/well in 200 μL of growth media.
# 4. Grow cells at least one day at 37° C., 5% CO2.
# 5. Wash cells with D-PBS 1×.
# 6. Add 200 μL/well of starvation media (DMEM, 2.0 mM 1-Glutamine, 0.1% FBS). Incubate overnight at 37° C., 5% CO2.
# 7. Dilute Compounds/Extracts 1:20 in polypropylene 96 well plates using starvation media. Dilute dimethylsulfoxide 1:20 for use in control wells.
# 8. Remove starvation media from 96 well cell culture plates and add 162 μL of fresh starvation media to each well.
# 9. Add 18 μL of 1:20 diluted Compound/Extract dilution (from step 7) to each well plus the 1:20 dimethylsulfoxide dilution to the control wells (+/-VEGF), for a final dilution of 1:200 after cell stimulation. Final dimethylsulfoxide is 0.5%. Incubate the plate at 37° C., 5% CO2 for two hours.
# 10. Remove unbound antibody from ELISA plates by inverting plate to remove liquid. Wash 3 times with TBSW+0.5% ethanolamine, pH 7.0. Pat the plate on a paper towel to remove excess liquid and bubbles.
# 11. Block plates with TBSW+0.5% Ethanolamine, pH 7.0, 150 μL per well. Incubate plate thirty minutes while shaking on a microtiter plate shaker.
# 12. Wash plate 3 times as described in step 10.
# 13. Add 0.5 μg/well affinity purified […] polyclonal rabbit antiserum. Bring final volume to 150 μL/well with TBSW+0.5% ethanolamine pH 7.0. Incubate plate for thirty minutes while shaking.
# 14. Add 180 μL starvation medium to the cells and stimulate cells with 20 μL/well 10.0 mM sodium ortho vanadate and 500 ng/mL VEGF (resulting in a final concentration of 1.0 mM sodium ortho vanadate and 50 ng/mL VEGF per well) for eight minutes at 37° C., 5% CO2. Negative control wells receive only starvation medium.
# 15. After eight minutes, media should be removed from the cells and washed one time with 200 μL/well PBS.
# 16. Lyse cells in 150 μL/well HNTG while shaking at room temperature for five minutes. HNTG formulation includes sodium ortho vanadate, sodium pyro phosphate and EDTA.
# 17. Wash ELISA plate three times as described in step 10.
# 18. Transfer cell lysates from the cell plate to ELISA plate and incubate while shaking for two hours. To transfer cell lysate pipette up and down while scrapping the wells.
# 19. […]
# chicken trkA receptor = assay: Receptor phosphorylation in cells expressing both rat and chicken trkA, chick receptor; settings: NGF or CTA
# Protocol: (§1) The assumption was tested by expressing both rat and chicken trkA receptors in the same cell and activating them with either neurotrophic growth factor (NGF), which binds both receptors, or with the CTA antibody, which binds only the chick receptor. […] The effects of the CTA antibody preparation were therefore not attributable to activation of endogenous trkA receptors.
# (§2) The conditions for immunoprecipitation and immunoblotting used in the experiments were described previously (Clary et al., 1994, Mol. Biol. Cell 5: 549-563) with modifications as follows. Immunoblots were performed in Tris-buffered saline containing 0.1% Triton X-100, and filter blocking and antibody incubations were performed in the same buffer with 1% BSA. In other experiments, anti-phosphotyrosine detection was performed with biotinylated-4G10 monoclonal antibody followed by a peroxidase avidin-biotin complex. Other antibodies were detected with peroxidase coupled anti-mouse IgG, anti-rabbit IgG, or protein A as indicated. All peroxidase conjugates were detected using a chemiluminescence protocol (Pierce Chemical Co. Rockford, Ill.).
# rat trkA receptor = assay: Receptor phosphorylation in cells expressing both rat and chicken trkA, rat receptor
# Protocol: as §1, §2
# [1] = tested on: c-ret chimera (human C-RET transmembrane and cytoplasmic domains fused to chicken TRKA extracellular domain); assay: Chimeric receptor activation in infected C6 glioma cells (anti-phosphotyrosine immunoblot), c-ret chimera; settings: 50 ng/mL NGF, five minutes
# Protocol: (§3) DNA constructs were generated, which encoded the transmembrane and cytoplasmic domains from human MCK-10, C-RET, mouse SEK, and rat TRKA fused to the chicken TRKA extracellular domain. These chimeric receptor constructs were then inserted into the adenovirus transfer vector, and recombinant viruses were generated and purified. Rat C6 glioma cells were infected with the recombinant viruses, and the resulting chimeric receptors were analyzed via immunoblot analysis.
# (§4) The ability to activate the chimeras was evaluated by incubating the infected C6 monolayers with 50 ng/mL NGF for five minutes. The receptors were immunoprecipitated with the CTA antibody, immunoblotted, and probed either with the anti-phosphotyrosine antibody 4G10 or with the CTA antibody preparation.
# (§5) C6 glioma cells were grown in Ham's Flo medium containing 10% fetal calf serum; for receptor activation experiments the medium was changed to 0.5% fetal calf serum 12 hours prior to stimulation.
# [2] = tested on: sek chimera (mouse SEK transmembrane and cytoplasmic domains fused to chicken TRKA extracellular domain); assay: Chimeric receptor activation in infected C6 glioma cells (anti-phosphotyrosine immunoblot), sek chimera; settings: 50 ng/mL NGF, five minutes
# Protocol: as §3, §4, §5
# [3] = tested on: MCK-10 chimera (human MCK-10 transmembrane and cytoplasmic domains fused to chicken TRKA extracellular domain); assay: Chimeric receptor activation in infected C6 glioma cells (anti-phosphotyrosine immunoblot), MCK-10 chimera; settings: 50 ng/mL NGF, before or after incubation
# Protocol: as §3, §4, §5
Molecule,EC200 (FLK-1 receptor) [µM],also measured
Cc1ccc(/C=C2\C(=O)Nc3ccc(CCC(=O)O)cc32)s1 [Indolinone 5],> 100,
Cc1cc(C)c(/C=C2\C(=O)Nc3ccc(C(=O)O)cc32)[nH]1 [Indolinone 4],2.8,
CCc1cc(CC)c(/C=C2\C(=O)Nc3ccc(C(=O)O)cc32)[nH]1 [Indolinone 2],2.8,
CC(C)c1cc(C(C)C)c(/C=C2\C(=O)Nc3ccc(C(=O)O)cc32)[nH]1 [Indolinone 1],10,
Cc1cc(C)c(/C=C2\C(=O)Nc3ccc(CCC(=O)O)cc32)[nH]1 [Indolinone 3],32,
"NGF: nerve growth factor, which binds to the extracellular region of the TRK receptor",,phosphorylation of the chick receptor (chicken trkA receptor): became phosphorylated; activation of the rat receptor (rat trkA receptor): activation of the rat receptor was detected only after NGF addition; activation of c-ret chimera [1]: NGF-dependent activation of the c-ret and sek chimeras was detected; activation of sek chimera [2]: NGF-dependent activation of the c-ret and sek chimeras was detected; phosphotyrosine of MCK-10 chimeric protein [3]: Phosphotyrosine was not detected
Cc1ccc(/C=C2\C(=O)Nc3ccc(C(=O)O)cc32)s1 [Indolinone 6],46,
